# Results from patent US8062995B2, “Dioxazine-substituted arylamides” (Bayer CropScience AG, priority 2005, dated 2011).
# What was measured:
# Heliothis virescens = Heliothis virescens test (eggs); assay type: in vivo; settings: for Kill rate after 6-7d in %: 300 ppm, eggs
# Procedure: (§1) Heliothis virescens Solvents: 1% of N-methylpyrrolidone (NMP) • 1% of diacetone alcohol Dye: brilliant sulphoflavin for staining the water To produce a suitable preparation of active compound, the active compound is mixed with the stated amounts of solvents and the concentrate is diluted with stained water to the desired concentration. The eggs (Heliothis virescens) are treated with an active compound preparation of the desired concentration. After the desired period of time, the activity in % is determined. 100% means that all animals have been killed; 0% means that none of the animals have been killed.
# Myzus persicae = Myzus persicae test (ingestion of active compound preparation); assay type: in vivo; settings: for Kill rate after 6-7d in %: 30 ppm, ingestion
# Procedure: Myzus persicae Test Solvents: 1% of N-methylpyrrolidone (NMP) • 1% of diacetone alcohol Dye: brilliant sulphoflavin for staining the water To produce a suitable preparation of active compound, the active compound is mixed with the stated amounts of solvents and the concentrate is diluted with stained water to the desired concentration. The Myzus persicae are provided with an active compound preparation of the desired concentration for ingestion. After the desired period of time, the activity in % is determined. 100% means that all aphids have been killed; 0% means that none of the aphids have been killed.
# [1] = system: caterpillars of the army worm (Spodoptera frugiperda); experiment: Spodoptera frugiperda test (SPODFR spray treatment); assay type: in vivo; settings: for Kill rate after 7d in %: 100 g/ha, spray treatment
# Procedure: Spodoptera frugiperda Test (SPODFR Spray Treatment) Solvents: 78 parts by weight of acetone • • 1.5 parts by weight of dimethylformamide Emulsifier: 0.5 part by weight of alkylaryl polyglycol ether To produce a suitable preparation of active compound, 1 part by weight of active compound is mixed with the stated amounts of solvents and emulsifier and the concentrate is diluted with emulsifier-containing water to the desired concentration. Discs of maize leaves (Zea mays) are sprayed with an active compound preparation of the desired concentration and after drying populated with caterpillars of the army worm (Spodoptera frugiperda). After the desired period of time, the activity in % is determined. 100% means that all of the caterpillars have been killed; 0% means that none of the caterpillars have been killed.
# [2] = logP determination by HPLC (reversed-phase C18), EEC Directive 79/831 Annex V.A8; assay type: physicochemical; settings: HPLC reversed-phase C18, 43° C., acidic range pH 2.7
# Procedure: The logP values given in the tables and Preparation Examples above are determined in accordance with EEC Directive 79/831 Annex V.A8 by HPLC (High Performance Liquid Chromatography) on a reversed-phase column (C 18). Temperature: 43° C. The determination by LC-MS in the acidic range is carried out at pH 2.7 using 0.1% aqueous formic acid and acetonitrile (contains 0.1% formic acid) as mobile phases; linear gradient from 10% acetonitrile to 95% acetonitrile. Calibration is carried out using unbranched alkan-2-ones (having 3 to 16 carbon atoms) with known logP values (determination of the logP values by the retention times using linear interpolation between two successive alkanones).
# [3] = system: larvae of the mustard beetle (Phaedon cochleariae); experiment: Phaedon test (sprayed Chinese cabbage discs); assay type: in vivo
# Procedure: Phaedon Test Solvents: 78 parts by weight of acetone • • 1.5 parts by weight of dimethylformamide Emulsifier: 0.5 part by weight of alkylaryl polyglycol ether To produce a suitable preparation of active compound, 1 part by weight of active compound is mixed with the stated amounts of solvents and emulsifier and the concentrate is diluted with emulsifier-containing water to the desired concentration. Discs of Chinese cabbage (Brassica pekinensis) are sprayed with an active compound preparation of the desired concentration and, after drying, populated with larvae of the mustard beetle (Phaedon cochleariae). After the desired period of time, the activity in % is determined. 100% means that all beetle larvae have been killed; 0% means that none of the beetle larvae have been killed.
# [4] = system: Spodoptera frugiperda larvae; experiment: Spodoptera frugiperda test (treatment by watering); assay type: in vivo
# Procedure: Spodoptera frugiperda Test Solvent: 7 parts by weight of dimethylformamide Emulsifier: 2 parts by weight of alkylaryl polyglycol ether To produce a suitable preparation of active compound, 1 part by weight of active compound is mixed with the stated amounts of solvent and emulsifier and the concentrate is diluted with water to the desired concentration. Maize plants (Zea mays) are watered with an active compound preparation of the desired concentration and infected with Spodoptera frugiperda larvae. After the desired period of time, the kill in % is determined. 100% means that all larvae have been killed; 0% means that none of the larvae have been killed.
# [5] = system: caterpillars of the cotton bollworm (Heliothis armigera); experiment: Heliothis armigera test (leaf dip); assay type: in vivo
# Procedure: Heliothis armigera Test Solvent: 7 parts by weight of dimethylformamide Emulsifier: 2 parts by weight of alkylaryl polyglycol ether To produce a suitable preparation of active compound, 1 part by weight of active compound is mixed with the stated amounts of solvent and emulsifier and the concentrate is diluted with emulsifier-containing water to the desired concentration. Soya bean leaves (Glycine max.) are treated by being dipped into the active compound preparation of the desired concentration and populated with caterpillars of the cotton bollworm (Heliothis armigera) while the leaves are still moist. After the desired period of time, the kill in % is determined. 100% means that all caterpillars have been killed; 0% means that none of the caterpillars have been killed.
# [6] = system: Diabrotica undecimpunctata; experiment: Diabrotica undecimpunctata (DIABUN) test (eggs); assay type: in vivo
# Procedure: as §1, with “Diabrotica undecimpunctata (DIABUN)” for “Heliothis virescens”, “(Diabrotica undecimpunctata)” for “(Heliothis virescens)”
SMILES,activity in the Heliothis virescens test (in words) (Heliothis virescens),Kill rate after 6-7d in % (Heliothis virescens),activity in the Myzus persicae test (in words) (Myzus persicae),Kill rate after 6-7d in % (Myzus persicae),"activity in the Spodoptera frugiperda test, spray treatment (in words) [1]",Kill rate after 7d in % [1],logP [2],activity in the Phaedon test (in words) [3],"Kill rate after 7d in % ([3]; 100 g/ha, 7 d)","activity in the Spodoptera frugiperda test, watering (in words) [4]","Kill rate after 14d in % ([4]; 20 ppm, 14 d, treatment by watering)",activity in the Heliothis armigera test (in words) [5],"Kill rate after 7d in % ([5]; 20 ppm, 7 d)",activity in the Diabrotica undecimpunctata test (in words) [6],"Kill rate after 2-5d in % ([6]; 300 ppm, 2-5 d, eggs)"
Cc1cccc(C2=NOCCO2)c1NC(=O)c1cc(Cl)nn1-c1ncccc1Cl [Example I-1-7],good activity,100%,good activity,100%,good activity,100%,2.54,,,,,,,,
Cc1cc(Cl)cc(C2=NOCCO2)c1NC(=O)c1cc(Cl)nn1-c1ncccc1Cl [Example I-1-9],good activity,100%,good activity,100%,good activity,100%,3.08,good activity,100%,good activity,95%,good activity,80%,good activity,100%
